# In patent publication US20060004086A1, “Method of reducing Abeta42 and treating diseases” (Mayo Foundation for Medical Education and Research, priority 2000, published 2006):
# Like-named read-outs stand apart in the source and are kept apart here.
# Tests used:
# [1] = system: Notch intramembrane cleavage; assay: Notch intramembrane cleavage and NICD formation in HEK293 cells; format: cell-based; conditions: for inhibition of Notch cleavage: data not shown
# Text: Two Notch-encoding vector constructs were used in examining Notch processing. These were a construct expressing a myc-tagged NH2-terminal truncated Notch-1 polypeptide (NotchΔEMV), and a construct expressing only the Notch intracellular cytoplasmic domain (NICD) (see Kopan et al. (1996) Proc Natl Acad Sci USA 93:1683-8). In the construct expressing a myc-tagged NH2-terminal truncated Notch-1 polypeptide, the start codon, a methionine at position 1726, was mutated to a valine to eliminate translation initiation.
# Notch intramembrane cleavage and formation of NICD were analyzed in kidney HEK293 cells. The myc-tagged NotchΔEMV construct encoding a constitutively cleaved Notch variant was transiently transfected into HEK293 cells. […] Then they were pulse labeled with ^35S-methionine for thirty minutes and chased for two hours. Cell lysates were prepared and subjected to immunoprecipitation with monoclonal antibody 9E10. Immunoprecipitated proteins were subjected to SDS-PAGE and phosphor imaging analyses.
# Aβ species [2] = assay: Bicine/Urea Aβ western blot, CHO cells expressing APP751 and mutant PS-1; format: cell-based, Chinese hamster; conditions: 60 μM or 80 μM, compared with DMSO
# Method: Bicine/Urea Aβ western blot analysis was performed as described by Wiltfang et al. (1997) Electrophoresis 18:527-32. A 1 mL amount of culture supernatant was subjected to immunoprecipitation using monoclonal antibody 26D6. Immunoprecipitates were mixed with sample buffer and heated to 95° C. for five minutes. Eluant samples were separated on Bicine/Urea gels, then transferred to nitrocellulose membranes, and probed with antibody 26D6. Standard Aβ1-40, Aβ1-42 and Aβ1-38 peptides (Sigma, MO, USA) were used for identification of the Aβ species.
# AP polypeptides were immunoprecipitated from culture supernatants of CHO cells expressing APP751 and mutant PS-1. Immunoprecipitates were separated on an SDS-urea gel system that can resolve individual Aβ species (see Wiltfang et al. (1997) Electrophoresis 18:527-32). Standard Aβ1-38, Aβ1-40, and Aβ1-42 peptides were included for identification of different Aβ species.
# Aβ42 secretion [3] = assay: Aβ40/Aβ42 ELISA of culture supernatants, CHO cells expressing APP751 and PS-1 mutant M146L; format: cell-based, Chinese hamster
# Method: (§1) Cell cultures were maintained in standard cell culture media supplemented with 10% fetal bovine serum and 100 U/mL penicillin/streptomycin (Life Technologies Inc., Germany).
# (§2) For analyses of Aβ secretion, APP processing, and notch cleavage, cells were cultured in serum-containing media and pretreated overnight with a specific NSAID. The next day, media were changed and cultures were treated with the same NSAID for another 24 hours.
# (§3) Aβ was detected by sandwich enzyme-linked immunosorbent assay (ELISA) as described by Murphy et al. (2000) J Biol Chem 275:26277-84. Following NSAID treatment, culture supernatants were collected, and cell debris was removed by centrifugation. Complete protease inhibitor cocktail (Roche Molecular Biochemicals, IN, USA) was added to the media and Aβ40 and Aβ42 levels were quantified using end-specific Aβ ELISAs. All measurements were performed in duplicate.
# (§4) Levels of Aβ40 and Aβ42 in culture supernatants were analyzed using ELISA. […] Aβ42/Aβ40 ratios and total Aβ levels (i.e., the sum of Aβ40 and Aβ42 values) were normalized to values obtained from DMSO-treated cells. Results shown were averages of two or three experiments performed in duplicate.
# Aβ40 and Aβ42 levels in culture supernatants were analyzed using ELISA as described in Example 3. […] Aβ42/Aβ40 ratios and total Aβ levels were normalized to values obtained from ethanol-treated cells. Results shown were averages of two or three experiments, each performed in duplicate.
# APP processing = assay: Western blot of APP, APP CTFs and sAPP, CHO cells expressing APP751; format: cell-based, Chinese hamster; conditions: for accumulation of APP-CTFs: data not shown
# Text: Expression of holo-APP and APP C-terminal fragments (CTFs) was examined by Western blot analysis using antibody CT-15. APP secretion was examined by Western blotting using a mixture of 5A3/IG7 antibodies. APP turnover was examined by pulse labeling of CHO cells with 150 μCi [^35S]-methionine for fifteen minutes followed by a cold chase step for up to four hours. Cell lysates were immunoprecipitated with antibody CT-15, subjected to SDS-PAGE, and analyzed by phosphor imaging.
# Cell lysates were prepared, and steady-state APP levels were examined using 4-12% gradient-gel electrophoresis and western blotting using the polyclonal antibody CT15.
# Aβ42 secretion [4] = assay: Primary in vitro screen, CHO-APP695NL,I,his cells, end-specific Aβ40 and Aβ42 ELISAs; format: cell-based, Chinese hamster; conditions: Cricetulus griseus, 6 h
# Method: Aβ40 and Aβ42 levels in culture supernatants were determined for each time points using ELISA.
# In a primary screen, the effects of NSAIDs on Aβ42 secretion by a CHO cell line that expressed APP(CHO-APP695NL,I,his) were examined. Duplicate cell cultures were treated with (a) a vehicle, (b) 10 μM of NSAID, or (c) 100 μM of NSAID.
# To determine Aβ40 and Aβ42 levels, six-hour culture supernatants taken from cells grown in a single well of a twenty-four-well plate were used in end-specific Aβ40 and Aβ42 ELISAs (Suzuki, et al. (1994) Sci 264:[…]). Aβ40 and Aβ42 levels of cultures treated with NSAID were compared with those of cultures treated with the vehicle alone. […] NSAIDs that caused either selective reduction of Aβ42 levels or reduction in both Aβ40 and Aβ42 levels are subjected to a secondary screen.
# Aβ species [5] = assay: Immunoprecipitation/mass spectrometry of secreted Aβ species, CHO cells expressing APP751; format: cell-based, Chinese hamster
# Method: Secretion of Aβ peptides was analyzed using immunoprecipitation/mass spectrometry as described by Wang et al. (1996) J Biol Chem 271:31894-902. Briefly, 1 mL amount of culture supernatant was subjected to immunoprecipitation using the monoclonal antibody 4G8 (Senetek, CA, USA). Molecular masses and concentrations of Aβ peptides were measured using a matrix assisted laser desorption/ionization time-of-flight (MALDI-TOF) mass spectrometer. To compare the concentrations of individual Aβ species in culture supernatants, synthetic Aβ12-28 peptides (Sigma, MO, USA) were added to the supernatant samples as internal standards and relative peak heights were calculated.
# To examine Aβ species secreted by cells treated with sulindac sulfide, immunoprecipitation and mass spectrometry analyses were performed. […] Various Aβ species including Aβ1-42, Aβ1-39, Aβ1-38, and Aβ1-37 were quantified. […] Duplicate measurements were used in generating the bar graph. […] Increases in Aβ1-38 levels were dose-dependent.
# CHO or HS683 cells = assay: NSAID cell toxicity, MTT-assay or [3H]-thymidine incorporation assay; conditions: concentrations up to 100 μM; data not shown
# Text: NSAID toxicity in CHO or HS683 cells was examined using standard MTT-assay (3-(4,5-Dimethyl-2-thiazolylyl)-2,5-diphenyl-2H-tetrazolium Bromide) or [^3H]-thymidine incorporation assay.
# [6] = plasma concentration of the drug; cited from earlier work
# Aβ42 secretion [7] = assay: Aβ ELISA, primary fibroblasts from COX-1/COX-2 double-knockout mice expressing APP695; format: cell-based; conditions: primary mouse embryonic fibroblasts; data not shown
# Text: as §1, §3
# Aβ42 secretion [8] = assay: Aβ secretion in kidney HEK293 cells; format: cell-based; conditions: data not shown
# Method: as §1, §2, §3, §4
# Aβ levels in the brain = conditions: long-term transgenic mouse studies; cited from earlier work
# [9] = system: brain Aβ42 levels in Tg2576 mice; assay: Acute oral dosing of three-month-old Tg2576 mice, brain Aβ ELISA; format: in vivo, mouse; conditions: Tg2576 mice
# Method: NSAIDs were dissolved in an appropriate vehicle. Dimethyl sulfoxide (DMSO), ethanol, and ethyl acetate are some examples. The NSAID solution was mixed with Kool-Aid and administered orally using a medicine dropper. […] At two hours after the final doses were administered, animals were sacrificed, and SDS soluble Aβ40 and Aβ42 were analyzed using ELISA.
# Three month old mice have high levels of soluble Aβ in the brain but no Aβ deposition (see Hsiao et al. (1996) Science 274:99-102). […] Brain levels of SDS-soluble Aβ40 and Aβ42 were measured using ELISA.
# Compounds were administered orally.
# Aβ42 secretion [10] = assay: Non-selective and selective COX-inhibitors tested for effect on Aβ42 levels in cell cultures (Table 1 summary); format: cell-based; conditions: for Aβ42/Aβ40 ratio: effect up to the highest conc. tested listed per drug in Table 1
# Method: All measurements were performed in duplicate.
# (§5) Aβ40 and Aβ42 levels in cell culture supernatants were analyzed using ELISA. Aβ42/Aβ40 ratios and total Aβ levels were normalized to values obtained from DMSO-treated cultures. […] NSAIDs were verified using NMR and mass spectrometry.
# COX-1/COX-2 = conditions: cited from earlier work
# Aβ42 secretion [11] = assay: Aβ40/Aβ42 ELISA of culture supernatants, CHO cells expressing APP751; format: cell-based, Chinese hamster
# Method: as §1, §2, §3
# The effect of sulindac sulfone on Aβ42 secretion was examined. Sulindac sulfone is an oxidation product of the pro-drug sulindac. […] Cell cultures were treated with increasing concentrations of sulindac sulfone. Aβ40 and Aβ42 levels in culture supernatants were analyzed using ELISA.
# as §5
# [12] = 10 μM, six-hour culture supernatants, read-out: % Control % Aβ42
# [13] = 10 μM, six-hour culture supernatants, read-out: % Control Aβ40
# [14] = 10 μM, six-hour culture supernatants, read-out: % Control Aβ42
# [15] = six-hour culture supernatants, read-out: % Control % Aβ42
# [16] = six-hour culture supernatants, read-out: % Control Aβ40
# [17] = six-hour culture supernatants, read-out: % Control Aβ42
# [18] = three month-old, 50 mg/kg/day orally for three days, SDS-soluble, mean ± SD
# [19] = treatment for three days, 50 mg/kg/day
# [20] = cell cultures, cell line and concentration not stated
structure (smiles),measurement,setting,value
"CSc1ccc(/C=C2/C(C)=C(CC(=O)O)c3cc(F)ccc32)cc1 [Sulindac sulfide, sulindac sulfide]",Notch cleavage and NICD formation,"[1]; 125 μM for 36 hours, HEK293 cells transfected with NotchΔEMV",did not impair Notch cleavage and NICD formation
same,immuno-reactive band corresponding to Aβ1-38,Aβ species [2],equivalent increase in the intensity
same,immuno-reactive band corresponding to Aβ42,Aβ species [2],reduction in the intensity
same,total Aβ level (sum of Aβ40 and Aβ42),Aβ42 secretion [3]; sulindac sulfide concentrations of FIG. 1,No significant reduction
same,"CTF levels (western blot, CT15)",APP processing; compared with DMSO,nor an increase in CTF levels was observed
same,"steady-state APP levels (western blot, CT15)",APP processing; compared with DMSO,neither a change in APP levels
same,secretion of the APP ectodomain (sAPP),"APP processing; increasing concentrations, 5A3/1G7 antibodies",no significant change
same,activity at 10 µM,Aβ42 secretion [4]; read-out: % Control % Aβ42,65%
same,activity at 10 µM,Aβ42 secretion [4]; read-out: % Control Aβ40,97%
same,activity at 10 µM,Aβ42 secretion [4]; read-out: % Control Aβ42,57%
same,Aβ42 secretion (mass spectrometry),Aβ species [5]; 75-100 μM,strong reduction
same,levels of Aβ40 (mass spectrometry),Aβ species [5]; 75-100 μM,largely unaffected
same,increases in Aβ1-38 levels,Aβ species [5]; 75 or 100 μM,dose-dependent
same,other Aβ peptide levels,Aβ species [5]; compared with DMSO,did not vary consistently
same,cell toxicity,CHO or HS683 cells,No cell toxicity was observed
same,Plasma,[6],14.6 µM
same,Aβ42 secretion,Aβ42 secretion [7],reduced Aβ42 secretion
same,Aβ42 secretion,Aβ42 secretion [8],reduced Aβ42 secretion
"CC(C)Cc1ccc(C(C)C(=O)O)cc1 (stereo not shown) [Ibuprofen, ibuprofen]",inhibition of Notch cleavage,[1]; 500 μM,did not cause
same,total Aβ levels,Aβ42 secretion [3]; concentrations up to 500 μM,not significantly affected
same,"Aβ levels in the brain, lower when treated than untreated",Aβ levels in the brain,about 38%
same,accumulation of APP-CTFs,APP processing; 500 μM,did not cause
same,activity at 10 µM,Aβ42 secretion [4]; [12],82%
same,activity at 10 µM,Aβ42 secretion [4]; [13],102%
same,activity at 10 µM,Aβ42 secretion [4]; [14],80%
same,activity at 100 µM,Aβ42 secretion [4]; [15],81%
same,activity at 100 µM,Aβ42 secretion [4]; [16],95%
same,activity at 100 µM,Aβ42 secretion [4]; [17],74%
same,Plasma,[6],40 to 111 µM
same,Brain levels of Aβ40,[9]; [18],2620 ± 246 fmol/gm
same,Brain levels of Aβ42,[9]; [18],734 ± 302 fmol/gm
same,% Aβ42 in brain,"[9]; three month-old, 50 mg/kg/day orally for three days, mean ± SD",21.5 ± 7.7 %
same,Aβ40 levels in the brain,[9]; [19],no change
same,reduction in Aβ42 levels in the brain,[9]; [19],approximately 30%
CS(=O)(=O)Nc1ccc([N+](=O)[O-])cc1OC1CCCCC1 [NS-398],Aβ42/Aβ40 ratios,Aβ42 secretion [10]; [20],did not affect
same,total Aβ levels,Aβ42 secretion [10]; [20],did not affect
same,Aβ42/Aβ40 ratio,Aβ42 secretion [10],no effect
same,activity at 10 µM,Aβ42 secretion [4]; [12],132%
same,activity at 10 µM,Aβ42 secretion [4]; [13],101%
same,activity at 10 µM,Aβ42 secretion [4]; [14],146%
same,COX-1/COX-2 selectivity# (1 = equal activity),COX-1/COX-2,.07
"CS(=O)(=O)c1ccc(C2=C(c3ccccc3)C(=O)OC2)cc1 [Rofecoxib, rofecoxib]",Aβ42/Aβ40 ratio,Aβ42 secretion [10],no effect
same,Aβ42/Aβ40 ratio,"Aβ42 secretion [11]; CHO cells expressing APP751, 20 μM",not seen
same,COX-1/COX-2 selectivity# (1 = equal activity),COX-1/COX-2,.001
same,Plasma,[6],0.003 µM
"COc1ccc2c(c1)c(CC(=O)O)c(C)n2C(=O)c1ccc(Cl)cc1 [Indomethacin, indomethacin]",inhibition of Notch cleavage,[1]; 150 μM,did not cause
same,total Aβ levels,Aβ42 secretion [3]; concentrations up to 100 μM,not significantly affected
same,accumulation of APP-CTFs,APP processing; 150 μM,did not cause
same,activity at 100 µM,Aβ42 secretion [4]; [15],68%
same,activity at 100 µM,Aβ42 secretion [4]; [16],101%
same,activity at 100 µM,Aβ42 secretion [4]; [17],69%
"CC(=O)Oc1ccccc1C(=O)O [Aspirin, Acetylsalicylic acid]",Aβ42/Aβ40 ratio,Aβ42 secretion [10],no effect
same,activity at 100 µM,Aβ42 secretion [4]; [15],104%
same,activity at 100 µM,Aβ42 secretion [4]; [16],93%
same,activity at 100 µM,Aβ42 secretion [4]; [17],99%
same,Aβ42 secretion,"Aβ42 secretion [11]; concentrations of up to 3 mM, data not shown",no reductions in Aβ42 secretion were observed
same,COX-1/COX-2 selectivity# (1 = equal activity),COX-1/COX-2,166
same,Plasma,[6],111 µM
